PubChem BioAssay AID330 (DTP/NCI, 2004)
Where “and” joins values, the source holds several entries; their conditions need not be identical. Equal entries are not always repeated. Inconclusive results and toxic doses are left out.

Test system: P388 leukemia ip, CD2F1 mice, survival T/C
Assay: NCI In Vivo Anticancer Drug Screen. Data for tumor model P388 Leukemia (intraperitoneal) in CD2F1 (CDF1) mice
Settings: endpoint: median survival time, higher = longer survival
In short: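 Mice carrying the transplanted tumor received test compound or vehicle. Survival was recorded in each group, and the value is the treated-group measurement divided by that of the vehicle-treated control group.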

CSc1nc(N)c(C(=O)Nc2ccccc2)s1
T/C (dose: 50.0 mg/kg/injection, schedule: Q01DX009 (ip), vehicle: Klucel (hydroxypropylcellulose) (HPC)): 103 % of control
T/C (dose: 100.0 mg/kg/injection, schedule: Q01DX009 (ip), vehicle: Klucel (hydroxypropylcellulose) (HPC)): 101 % of control
T/C (dose: 200.0 mg/kg/injection, schedule: Q01DX009 (ip), vehicle: Klucel (hydroxypropylcellulose) (HPC)): 100 % of control

CN(C)CCCN1c2ccccc2Sc2ccc(F)cc21
T/C (dose: 50.0 mg/kg/injection, schedule: Q01DX009 (ip), vehicle: saline): 122 % of control

COC(=N)C1=CC(C)(C)N(O)C1(C)C
T/C (dose: 100.0 mg/kg/injection, schedule: Q01DX001 (ip), vehicle: saline): 96 % of control
T/C (dose: 200.0 mg/kg/injection, schedule: Q01DX001 (ip), vehicle: saline): 102 % of control
T/C (dose: 400.0 mg/kg/injection, schedule: Q01DX001 (ip), vehicle: saline): 98 % of control

CCCC(=O)Nc1ccc(C2=NNC(=O)C3CC23)cc1 (stereo not drawn)
T/C (dose: 50.0 mg/kg/injection, schedule: Q01DX005 (ip), vehicle: saline + Tween-80 + alcohol): 99 % of control
T/C (dose: 100.0 mg/kg/injection, schedule: Q01DX005 (ip), vehicle: saline + Tween-80 + alcohol): 99 % of control
T/C (dose: 200.0 mg/kg/injection, schedule: Q01DX005 (ip), vehicle: saline + Tween-80 + alcohol): 97 % of control

O=c1cc(-c2ccc(Cl)cc2)c(-c2ccc(Cl)cc2)nn1CCO
T/C (dose: 100.0 mg/kg/injection, schedule: Q04DX002 (ip), vehicle: saline with Tween-80): 95 % of control
T/C (dose: 200.0 mg/kg/injection, schedule: Q04DX002 (ip), vehicle: saline with Tween-80): 95 % of control
T/C (dose: 400.0 mg/kg/injection, schedule: Q04DX002 (ip), vehicle: saline with Tween-80): 89 % of control

ON(C(=S)Nc1ccc(Cl)cc1)c1ccccc1
T/C (dose: 12.5 mg/kg/injection, schedule: Q01DX005 (ip), vehicle: saline with Tween-80): 104 % of control
T/C (dose: 25.0 mg/kg/injection, schedule: Q01DX005 (ip), vehicle: saline with Tween-80): 100 % of control
T/C (dose: 50.0 mg/kg/injection, schedule: Q01DX005 (ip), vehicle: saline with Tween-80): 95 % of control and 98 % of control
T/C (dose: 100.0 mg/kg/injection, schedule: Q01DX005 (ip), vehicle: saline with Tween-80): 94 % of control
T/C (dose: 200.0 mg/kg/injection, schedule: Q01DX005 (ip), vehicle: saline with Tween-80): 97 % of control

Clc1ccc([Si]23OCCN(CCO2)CCO3)cc1
T/C (dose: 0.19 mg/kg/injection, schedule: Q01DX009 (ip), vehicle: Klucel (hydroxypropylcellulose) (HPC)): 93 % of control
T/C (dose: 0.39 mg/kg/injection, schedule: Q01DX009 (ip), vehicle: Klucel (hydroxypropylcellulose) (HPC)): 99 % of control
T/C (dose: 0.78 mg/kg/injection, schedule: Q01DX009 (ip), vehicle: Klucel (hydroxypropylcellulose) (HPC)): 108 % of control

Nc1nc(-c2ccccc2)nc(Cl)c1I
T/C (dose: 25.0 mg/kg/injection, schedule: Q01DX009 (ip), vehicle: saline with Tween-80): 103 % of control
T/C (dose: 50.0 mg/kg/injection, schedule: Q01DX009 (ip), vehicle: saline with Tween-80): 105 % of control
T/C (dose: 100.0 mg/kg/injection, schedule: Q01DX009 (ip), vehicle: saline with Tween-80): 102 % of control
T/C (dose: 100.0 mg/kg/injection, schedule: Q04DX003 (ip), vehicle: saline): 94 % of control
T/C (dose: 200.0 mg/kg/injection, schedule: Q01DX009 (ip), vehicle: saline with Tween-80): 105 % of control
T/C (dose: 200.0 mg/kg/injection, schedule: Q04DX003 (ip), vehicle: saline): 94 % of control
T/C (dose: 400.0 mg/kg/injection, schedule: Q04DX003 (ip), vehicle: saline): 101 % of control

CCCCCCOCCOCCCN1C(=O)C2C3C=CC(C3)C2(Cl)C1=O (stereo not drawn)
T/C (dose: 50.0 mg/kg/injection, schedule: Q01DX005 (ip), vehicle: distilled water + Tween-80 + alcohol): 102 % of control
T/C (dose: 100.0 mg/kg/injection, schedule: Q01DX005 (ip), vehicle: distilled water + Tween-80 + alcohol): 105 % of control
T/C (dose: 200.0 mg/kg/injection, schedule: Q01DX005 (ip), vehicle: distilled water + Tween-80 + alcohol): 100 % of control

NC(=O)CCSC(N)=S
T/C (dose: 50.0 mg/kg/injection, schedule: Q01DX005 (ip), vehicle: Klucel (hydroxypropylcellulose) (HPC)): 100 % of control
T/C (dose: 100.0 mg/kg/injection, schedule: Q01DX005 (ip), vehicle: Klucel (hydroxypropylcellulose) (HPC)): 109 % of control
T/C (dose: 200.0 mg/kg/injection, schedule: Q01DX005 (ip), vehicle: Klucel (hydroxypropylcellulose) (HPC)): 100 % of control

Cn1c([N+](=O)[O-])cnc1N1CCN(c2nncs2)C1=O
T/C (dose: 60.0 mg/kg/injection, schedule: Q01DX005 (ip), vehicle: saline): 100 % of control
T/C (dose: 120.0 mg/kg/injection, schedule: Q01DX005 (ip), vehicle: saline): 101 % of control
T/C (dose: 240.0 mg/kg/injection, schedule: Q01DX005 (ip), vehicle: saline): 100 % of control

CCC(c1ccc(OC)cc1)C(NCC(=O)N/N=C/c1c[nH]c2ccccc12)c1ccc(OC)cc1 (stereo not drawn)
T/C (dose: 100.0 mg/kg/injection, schedule: Q01DX001 (ip), vehicle: saline with Tween-80): 94 % of control
T/C (dose: 200.0 mg/kg/injection, schedule: Q01DX001 (ip), vehicle: saline with Tween-80): 87 % of control

CC(/C=C/C=C/C=C/C=C/C=C/C(O)=C1/C(=O)C(CCC(=O)O)N(C)C1=O)=C\C(C)C(OC1CC(O)C(O)C(C)O1)C(C)C (stereo not drawn)
T/C (dose: 1.0 mg/kg/injection, schedule: Q01DX005 (ip), vehicle: water): 121 % of control
T/C (dose: 2.0 mg/kg/injection, schedule: Q01DX005 (ip), vehicle: water): 165 % of control
T/C (dose: 4.0 mg/kg/injection, schedule: Q01DX005 (ip), vehicle: water): 112 % of control and 115 % of control
T/C (dose: 8.0 mg/kg/injection, schedule: Q01DX005 (ip), vehicle: water): 158 % of control and 163 % of control
